The values that follow are results of earlier work, collected in publication PMC8445767 (Bioorganic Chemistry, 2021).

For orientation: IC50 means the midpoint of a concentration-inhibition curve.

Data set [1] deals with herpes simplex virus type 1. Conditions: read-out: IC50 against herpes simplex virus type 1.
Data set [2] concerns herpes simplex virus type 1. Conditions: read-out: IC50 against herpes simplex virus type 1. This is another data set of the same source.

Where two headings read alike, the source gives them in different places.

Regarding Simplicilliumtide J [XIV], the half-inhibitory concentration (IC50) in data set [1] is 14 µM. Aspergilli peptide D [XI]: the IC50 in data set [2] was 9.5 µM.
